# Literature values, collected in US12128086B2, “Formulations and methods of use for alpha connexin c-terminal (ACT) peptides” (XEQUEL BIO, INC., priority 2012, dated 2024).
# Like-named read-outs stand apart in the source and are kept apart here.
# Legend:
# [1] = system: full thickness excisional wounds; details: adult mice; 100 μM of ACT1 peptide; 5 mm full thickness excisional wounds
# [2] = system: full thickness excisional wounds; details: pigs; 100 μM of ACT1 peptide; 5 mm full thickness excisional wounds
substance,measurement,setting,value
Biotin-Ahx-Arg-Gln-Pro-Lys-lle-Trp-Phe-Pro-Asn-Arg-Arg-Lys-Pro-Trp-Lys-Lys-Arg-Pro-Arg-Pro-Asp-Asp-Leu-Glu-lle-OH [Peptide 328967],Wound healing versus vehicle control (in words),[1],"closed faster, appeared less swollen and inflamed, and healed with a smoother and less discolored appearance"
same,Wound healing versus vehicle control (in words),[2],"closed faster, appeared less swollen and inflamed, and healed with a smoother and less discolored appearance"
